Reference: patent US20210137945A1, “METHOD FOR TREATING A CANCER ASSOCIATED WITH THE ACTIVATION OF GALECTIN-1” (TRINEO BIOTECHNOLOGY CO. LTD, priority 2019, published 2021)
Values belong to the compound of their own block, whether it stands above or below them.

Legend:
Assay type in all cases: cell-based
[1] = test system: myeloma ARH-77 cells; test: MTT assay of myeloma ARH-77 cells treated with chemotherapeutic drugs alone or combined; settings: for IC50: ARH-77 cells, chemotherapeutic agent alone (control)
Procedure: (§1) Ovarian cancer cell ES-2 and myeloma cell line ARH-77 were used in the present disclosure. Cells was cultured and maintained in Dulbecco's modified Eagle media (DMEM) supplemented with 10% fetal bovine serum (FBS), 100 IU/ml penicillin, […] streptomycin, 2 mM glutamine, non-essential amino acids and sodium pyruvate in 5% CO2 at 37° C. Cells were grown and maintained in Petri dishes (each was 10 cm in diameter) until they reached 80% confluence, and then were subject to cell passages. Briefly, cells were first washed with phosphate buffer solution (PBS, 3 ml) once, then treated with 0.05% Trypsin/0.025% EDTA solution (1 mL) for 5 min so that the attached cells become suspended. The suspended cells were harvested and 2 mL fresh culture media were added therein to neutralize any remaining activity of trypsin. Cell density was adjusted by adding appropriate amounts of culture medium to the cell suspension, which was then used to seed the culture plates. The plates were then returned to the incubator, and cultured in accordance with the steps described above.
Cells were seeded in 96-well plates with a density of 3,000 cells/well and cultured in accordance with the procedures described above. On the day when cell activity analysis was to be conducted, cells were first treated with various concentrations of the triterpenoids of the present disclosure, imatinib or gefitinib for at least 48 hrs, before subjecting them to MTT assay.
(§2) 50 μL of the MTT stock solution (5 mg MTT dissolved in 1 ml of sterile PBS) was added to each well, and 50 μL of the MTT stock solution was added to 500 μL of medium alone and used as a negative control. Each sample was incubated at 37° C. for 4 hours. Aliquots (450 μl) from each sample were taken to a new well of 48-well culture plate, adding […], DMSO, mixing thoroughly using the pipette and reacted at 37° C. for 20 min and absorbance was measured at 570 nm.
Results are summarized in Tables 1 to 3, and FIGS. 3 and 4.
If no significance existed between the expected and observed values, the effect is termed“additivity (p>0.05)”. […] The expected value was determined by multiplying the survival rate of each drug in specific dose. The obtained value and value of each survival rate were measured by MMT assay (FIG. 3 and FIG. 4).

[2] = test system: ovarian cancer cells (i.e., ES-2 cells); test: MTT assay of cell activity, ES-2 cells; settings: treated at least 48 hrs
Procedure: as §1, with “The suspended cells were harvested and 2 mL fresh culture media were added therein to neutralize any remaining activity of trypsin. Cell density was adjusted by adding appropriate amounts of culture medium to the cell suspension, which was then used to seed the culture plates. The plates were then returned to the incubator, and cultured in accordance with the steps described above.” left out
as §2, with “Each sample was incubated at 37° C. for 4 hours.” left out
The effects of the TN-GL-01 composition of example 1.1 on ovarian cancer cells (i.e., ES-2 cells) were evaluated by MTT assay in accordance with procedures described in the “Material and Methods” section.

[3] = test system: galectin-1; test: Western blot analysis of galectin-1 expression in ES-2 cells; settings: western blot (FIG. 2)
Procedure: Samples were respectively subjected to SDS-PAGE, transferred to PVDF membranes. These blots were blocked with 5% nonfat milk powder in TBS-0.1% Tween-20 for 30 minutes, followed by incubation with primary antibodies at 4° C. overnight and then horseradish peroxidase-conjugated secondary antibodies (Amersham Biosciences, Piscataway). Imaging of bands was performed using Pierce ECL Western Blotting Substrate (Thermo Fisher Scientific) and ImageQuant LAS-4000 (GE Healthcare).
In this example, the effects of TN-GL-01 composition on the expression of galectin-1 in ERK (extracellular-signal-regulated kinase) pathway was investigated via western blot analysis. […] Thus, it was concluded that the present TN-GL-01 composition exerted its function through suppression of galectin-1.

Compound: N.N.[Cl][Pt][Cl] [Cisplatin, cisplatin]
Cell survival rate of the single drug ([1]; ARH-77, Table 2, Cisplatin 3 μM alone): 0.65
Cell survival rate of the single drug ([1]; ARH-77, Table 3, Cisplatin 3 μM alone): 0.69

IC50 ([1]; Homo sapiens): 99 nM
Compound: COc1cccc2c1C(=O)c1c(O)c3c(c(O)c1C2=O)C[C@@](O)(C(=O)CO)C[C@@H]3O[C@H]1C[C@H](N)[C@H](O)[C@H](C)O1 [Doxorubicin, doxorubicin]
Cell survival rate of the single drug ([1]; ARH-77, Table 2, Doxorubicin 100 nM alone): 0.58
Cell survival rate of the single drug ([1]; ARH-77, Table 3, Doxorubicin 250 nM alone): 0.66
Cell survival rate of the single drug ([1]; ARH-77, Table 3, Doxorubicin 500 nM alone): 0.66

IC50 [1]: 415 nM
Compound: COc1cc([C@@H]2c3cc4c(cc3[C@@H](O[C@@H]3O[C@@H]5CO[C@@H](C)O[C@H]5[C@H](O)[C@H]3O)[C@H]3COC(=O)[C@H]23)OCO4)cc(OC)c1O [Etoposide, etoposide]

Compound: C/C(=C/CC[C@@H](C)[C@H]1CC[C@@]2(C)C3=CC[C@H]4C(C)(C)C(=O)CC[C@]4(C)C3=CC[C@]12C)C(=O)O [GAS, ganoderic acid S]
50% inhibition of ES-2 cells (IC50) [2]: 58.3 µg/mL
expression of galectin-1 [3]: effective in suppressing the expression of galectin-1

Compound: CC(=O)O[C@@H](C/C=C(\C)C(=O)O)[C@@H](C)[C@H]1C[C@H](OC(C)=O)[C@@]2(C)C3=CC[C@H]4C(C)(C)[C@H](OC(C)=O)CC[C@]4(C)C3=CC[C@]12C [GAT, ganoderic acid T]
50% inhibition of ES-2 cells (IC50) [2]: 24.5 µg/mL
expression of galectin-1 [3]: effective in suppressing the expression of galectin-1

Compound: CC(=O)O[C@H]1C(=O)[C@@]2(C)[C@H]([C@H](OC(=O)c3ccccc3)[C@]3(O)C[C@H](OC(=O)[C@H](O)[C@@H](NC(=O)c4ccccc4)c4ccccc4)C(C)=C1C3(C)C)[C@]1(OC(C)=O)CO[C@@H]1C[C@@H]2O [Paclitaxel, paclitaxel]
Cell survival rate of the single drug ([1]; ARH-77, Table 2, Paclitaxel 62.5 nM alone): 0.68
Cell survival rate of the single drug ([1]; ARH-77, Table 2, Paclitaxel 125 nM alone): 0.50
Cell survival rate of the single drug ([1]; ARH-77, Table 3, Paclitaxel 40 μM alone): 0.65
